The values below come from patent US10221174B2, “N-(phenylsulfonyl)benzamides and related compounds as BCL-2 inhibitors” (THE REGENTS OF THE UNIVERSITY OF MICHIGAN, priority 2016, dated 2019).

Read-outs that look alike come from different tables or passages of the source.

The test system of one data set is RS4;11 cells. Kind of data set: RS4;11 cell viability, CCK-8 assay. The format is cell-based. The settings on record: Homo sapiens, RS4-11, 96 h, CCK-8, 4 days, read-out: RS4, 11 IC50 (Bcl-2 dependent). The gist of the method: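 RS4;11 cells seeded at 10000 cells/well in medium with 10% FBS, cultured overnight, then exposed to serially diluted compound for 4 days at 37° C., 5% CO2. Viability by CCK-8 absorbance at 450 nm, normalized to vehicle; IC50 by nonlinear regression.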
On the technique in general: Tetrazolium dyes change colour on reduction, which living cells bring about.

In the next data set the target is Mcl-1 (Homo sapiens (Human), UniProt Q07820). In words: Fluorescence polarization competitive binding assay, Mcl-1. Conditions: FP competition, 20 nM Mcl-1, 2 nM Flu-BID probe; read-out: Inhibitory activity IC50 Mcl-1. For orientation: Fluorescence polarisation rises when a labelled molecule tumbles more slowly, as on binding a larger partner.
Mcl-1, sequence (Q07820 whole entry): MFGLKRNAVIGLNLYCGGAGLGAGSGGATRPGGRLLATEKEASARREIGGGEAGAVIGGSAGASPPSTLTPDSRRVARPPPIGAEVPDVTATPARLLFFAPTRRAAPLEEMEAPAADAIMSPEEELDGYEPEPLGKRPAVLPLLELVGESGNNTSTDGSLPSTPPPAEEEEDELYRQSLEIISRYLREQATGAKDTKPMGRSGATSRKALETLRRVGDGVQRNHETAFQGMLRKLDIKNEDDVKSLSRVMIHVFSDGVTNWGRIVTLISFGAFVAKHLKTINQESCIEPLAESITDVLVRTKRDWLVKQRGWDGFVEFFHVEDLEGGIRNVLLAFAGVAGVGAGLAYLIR
The nature of a further data set: Pharmacokinetics in rats. The format is in vivo. The protocol:
The pharmacokinetics of ABT-199 and representative Compounds of the Disclosure were evaluated in rats at an IV dose of 2 mg/kg and an oral dose of 20 mg/kg.

The test system of data set [1] is RS4;11 leukemia xenograft. In words: RS4;11 leukemia xenograft model. Format: in vivo. Conditions: nude mice, oral gavage. The protocol:
The antitumor activity of Cpd. No. 6 (compound 6) was also studied in the RS4;11 leukemia xenograft model. Human RS4;11 tumor cells were injected into nude mice and treatment started on day 11 when the tumor size reached approximately 100 mm^3. Cpd. No. 6 was administered via oral gavage at indicated doses and schedules. Cpd.

Protocol for Mcl-1: Fluorescence polarization values were measured using the Infinite M-1000 plate reader (Tecan U.S., Research Triangle Park, N.C.) in Microfluor 1 96-well, black, round-bottom plates (Thermo Scientific). […] Plates were mixed and incubated at room temperature for 1 hour with gentle shaking to assure equilibrium. […] Equilibrium dissociation constants (Kd) were then calculated by fitting the sigmoidal dose-dependent FP increases as a function of protein concentrations using Graphpad Prism 5.0 software (Graphpad Software, San Diego, Calif.).
Mixtures of 5 μl of the tested inhibitors in DMSO and 120 μl of pre-incubated protein/probe complexes in the assay buffer were added into assay plates and incubated at room temperature for 2 hours with gentle shaking. […] FP values were measured as described above. IC50 values were determined by nonlinear regression fitting of the competition curves.

On to `O=C(NS(=O)(=O)c1ccc(NC[C@H]2COCCO2)c([N+](=O)[O-])c1)c1ccc(N2CCN(CC3=C(c4ccc(Cl)cc4)CC4(CCC4)CC3)CC2)cc1Oc1cnc2[nH]ccc2c1` [Cpd. No. 6, (S)-N-((4-(((1,4-dioxan-2-yl)methyl)amino)-3-nitrophenyl)sulfonyl)-2-((1H-pyrrolo[2,3-b]pyridin-5-yl)oxy)-4-(4-((6-(4-chlorophenyl)spiro[3.5]non-6-en-7-yl)methyl)piperazin-1-yl)benzamide], for which the IC50 with RS4;11 cells was 5.5 nM; on Mcl-1 it was over 5000 nM. Further, the “AUC0-∞ IV” value in the data set “Pharmacokinetics in rats” (IV 2 mg/kg) stood at 2915 n · gh/mL. The “AUC0-∞ PO” value in “Pharmacokinetics in rats” (oral 20 mg/kg) was found to be 13475 n · gh/mL. Further, the “F(AUC0-t)” value in “Pharmacokinetics in rats” (oral 20 mg/kg vs IV 2 mg/kg) amounted to 46.2%. For the same compound, in “Pharmacokinetics in rats” (rat, in vivo, IV 2 mg/kg), the MRT inf is 2.09 h. Also, the AUC(0-t) in “Pharmacokinetics in rats” (rat, in vivo, IV 2 mg/kg, read-out: AUC0-t IV) was 2.9 µg·h/mL; in the data set “Pharmacokinetics in rats” (rat, in vivo, oral 20 mg/kg, read-out: AUC0-t PO) it was 13.4 µg·h/mL. In addition, in “Pharmacokinetics in rats” (rat, in vivo, IV 2 mg/kg, read-out: CL (iv) (converted)), the clearance was 0.695 L/h/kg. Further, the Cmax in “Pharmacokinetics in rats” (rat, in vivo, IV 2 mg/kg, read-out: Cmax IV) came to 4.17 µg/mL; in “Pharmacokinetics in rats” (rat, in vivo, oral 20 mg/kg, read-out: Cmax PO) it was 2.62 µg/mL. Besides, the Tmax amounted to 0.083 h in “Pharmacokinetics in rats” (rat, in vivo, IV 2 mg/kg, read-out: Tmax IV) and 2.67 h in “Pharmacokinetics in rats” (rat, in vivo, oral 20 mg/kg, read-out: Tmax PO). Further, the Vd in “Pharmacokinetics in rats” (rat, in vivo, IV 2 mg/kg, read-out: Vss (iv)) was 1.44 L/kg. In addition, the half-life in the data set “Pharmacokinetics in rats” (rat, in vivo, IV 2 mg/kg, read-out: t1/2 IV (converted)) was 4.39 h; in “Pharmacokinetics in rats” (rat, in vivo, oral 20 mg/kg, read-out: t1/2 PO (converted)) it was 3.12 h. For the same compound, the mouse weight entry in data set [1] (FIG. 4) was “does not cause weight loss in mice”. The “antitumor activity (tumor growth)” value in data set [1] (treatment from day 11, FIG. 3) is given as “inhibits tumor growth”.

Usually IC50 stands for the midpoint of a concentration-inhibition curve. The MRT inf is a mean duration of stay, worked out from the concentration-time curve. As usually defined, the Cmax is the maximum level reached in the sampled fluid or tissue. For orientation: Tmax means the time from dosing to the highest level.
